Assay results from the SangsterLogP compilation.

Row | Compound | logP
1 | ClC(CCCCCCC(Cl)CC(Cl)(Cl)Cl)CC(Cl)(Cl)Cl (configuration not stated) | 7.75
2 | ClCC(Cl)CCCCCCC(Cl)CC(Cl)(Cl)Cl (configuration not stated) | 6.42
3 | ClC(CCCCCC(Cl)CC(Cl)(Cl)Cl)CC(Cl)(Cl)Cl (configuration not stated) | 7.23
4 | CC(Cl)CCC(Cl)C(Cl)CCC(Cl)CCl (configuration not stated) | 4.19
5 | CCCCC(Cl)C(Cl)CCC(Cl)CCl (configuration not stated) | 4.93
6 | ClC(CCC(Cl)C(Cl)CCC(Cl)CC(Cl)(Cl)Cl)CC(Cl)(Cl)Cl (configuration not stated) | 6.72
7 | ClCC(Cl)CCC(Cl)C(Cl)CCC(Cl)CCl (configuration not stated) | 4.02
8 | ClCC(Cl)CCC(Cl)C(Cl)(Cl)CCC(Cl)CCl (configuration not stated) | 4.2
9 | CC(Cl)CCC(Cl)C(Cl)CCC(C)Cl (configuration not stated) | 4.4
10 | ClCC(Cl)CCCCCCC(Cl)CCl (configuration not stated) | 5.01
11 | ClCC(Cl)CCC(Cl)C(Cl)CCC(Cl)CC(Cl)(Cl)Cl (configuration not stated) | 5.4
12 | ClC(CCCCC(Cl)CC(Cl)(Cl)Cl)CC(Cl)(Cl)Cl (configuration not stated) | 6.71
